Results published in US8877163B2, “Cycloalkyl triamine pentacarboxylate as ligands for paramagnetic metal complexes” (Kaohsiung Medical University, priority 2006, dated 2014).

Experiments:
Type in all cases: physicochemical
[1] = Stability constants of the gadolinium complex by potentiometric titration (BEST program)
From the text: Presently, there are two ways for calculating the thermodynamic stability constant of a metal complex by the potentiometric titration. […] The second method is suitable for the metal complex whose disassociation rate is less than 25% at low pH (such as pH 2). Take the metal complex of the present invention for instance, since it is not able to form a complex with the ligand at a pH value around 2, the thermodynamic stability constant thereof must be calculated by the previous method. The equation for the thermodynamic stability constant is defined as follows: [formula] where M represents the metal ion, L represents the ligand, and ML represents the metal complex. […] The thermodynamic stability constants for the metal complexes with CB-TTDA are determined from the titration data with the FORTRAN computer program BEST as shown in Table 2 with the reported thermodynamic stability constants of TTDA and DTPA, which are respectively reported by Y M. Wang et al., Inorganic Chemistry, vol. 44, page 382, 2005 and by P. Caravan et al., Inorganic Chemistry, vol. 44, page 2170, 2001. The conditional stability constant (Kcond) specifies the degree of metal chelation at a given pH and is defined as follows: […] [formula] where LT is the total concentration of the uncomplexed ligand, which is defined by the following equation: […]

[2] = Kinetic stability of the gadolinium complex toward zinc (II) transmetallation (relaxation rate ratio); settings: incubation with zinc (II) for three days; phosphate buffer pH 7.4, 2.5 mM ZnCl2, 2.5 mM complex; 20 MHz, 37.0 ± 0.1° C.
From the text: Among Zn^2+, Ca^2+, Cu^2+ and other metal ions, the zinc (II) combines a rather high concentration with high affinity toward poly(amino carboxylate) and may result in the gadolinium complex dissociation in vivo. […] The reciprocal of the longitudinal relaxation time is the water proton paramagnetic longitudinal relaxation rate, R1^P(t), where the ration of R1^P(t)|R1^P(0) represents the stability of the gadolinium complex for Zn^2+. […] Based on the mentioned principle, the kinetic stability of the gadolinium complex for zinc (II) could be measured. […] Laurent et al, Invest. Radiol., vol. 36, page 155, 2001.

[3] = Relaxivity r1 by 20 MHz relaxometer; settings: 37.0 ± 0.1° C., pH 7.4 ± 0.1
From the text: Mainly, the relaxivity of paramagnetic metal complex is affected by two factors, the inner-sphere and the outer-sphere relaxivities. Due to the existence of inner water molecules of the ligand of the present invention, the relaxivity thereof is mainly affected by the change of the inner-sphere relaxivity rather than the outer-sphere relaxivity (the outer-sphere relaxivity is considered similar to other ligands). The relaxivity of [Gd(CB-TTDA)]^2− is higher than those of [Gd(TTDA)]^2− (Y. M. Wang et al., Inorganic Chemistry, vol. 44, page 382, 2005) and [Gd(DTPA)]^2− (P. Caravan et al., Inorganic Chemistry, vol. 44, page 2170, 2001).

O=C([O-])CN(CCN(CC(=O)[O-])CC1(CN(CC(=O)[O-])CC(=O)[O-])CCC1)CC(=O)[O-].[Gd+3] [[Gd(CB-TTDA)]^2−]
calculated conditional stability constant of the gadolinium complex [1]: 15.83
log KML [GdL]/[Gd][L] (thermodynamic stability constant) [1]: 20.28
R1^p (t = 3days)/R1^p (t = 0 days) [2]: 47.4%
relaxivity r1 [3]: 4.12 ± 0.05 mM⁻¹ s⁻¹
